Tests used:
HMG-CoA reductase = target: T1, HMG-CoA reductase (Homo sapiens, UniProt P04035); experiment: Hepatic HMG-CoA reductase activity in 13-week-old WLH male chickens; type: in vivo, chicken; design: preparing subcellular fractions of liver and assay procedures for beta-hydroxy-beta-methylglutaryl coenzyme A (HMG Co-A) reductase; from tissue; host or cells: chicken liver (microsomal fraction); conditions: 20 ppm in corn diet, fed four weeks, liver
T1 sequence (P04035 1-888): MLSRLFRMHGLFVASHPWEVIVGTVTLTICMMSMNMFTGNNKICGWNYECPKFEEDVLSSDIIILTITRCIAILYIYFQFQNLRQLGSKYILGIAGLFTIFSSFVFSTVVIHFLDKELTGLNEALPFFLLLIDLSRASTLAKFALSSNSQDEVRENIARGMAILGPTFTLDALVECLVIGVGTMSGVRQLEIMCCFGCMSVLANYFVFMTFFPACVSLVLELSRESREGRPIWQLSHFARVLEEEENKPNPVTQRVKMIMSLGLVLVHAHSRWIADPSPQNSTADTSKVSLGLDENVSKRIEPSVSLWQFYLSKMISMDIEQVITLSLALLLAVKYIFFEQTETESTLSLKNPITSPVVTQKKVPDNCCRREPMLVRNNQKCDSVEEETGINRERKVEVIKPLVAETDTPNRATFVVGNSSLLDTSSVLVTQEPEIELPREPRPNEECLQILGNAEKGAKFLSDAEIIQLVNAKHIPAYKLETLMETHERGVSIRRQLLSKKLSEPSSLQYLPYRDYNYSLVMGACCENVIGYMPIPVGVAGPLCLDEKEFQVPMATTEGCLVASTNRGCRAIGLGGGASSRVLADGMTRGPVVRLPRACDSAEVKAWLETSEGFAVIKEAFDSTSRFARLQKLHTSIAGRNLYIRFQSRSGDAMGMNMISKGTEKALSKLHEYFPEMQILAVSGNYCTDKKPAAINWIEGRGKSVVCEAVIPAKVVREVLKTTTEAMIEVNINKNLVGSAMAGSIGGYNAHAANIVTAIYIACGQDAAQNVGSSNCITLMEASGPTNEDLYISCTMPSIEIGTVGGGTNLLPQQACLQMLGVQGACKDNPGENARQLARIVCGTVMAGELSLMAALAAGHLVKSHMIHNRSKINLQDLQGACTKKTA
Description: (§1) These responses were attributed to the presence in the small grains of relatively high concentrations of beta-D-glucans and pentosans. A long-standing interest in lipid metabolism prompted us to examine certain lipogenic and cholesterolgenic enzymes in the tissues of these birds. Methods used for handling blood samples, preparing subcellular fractions of liver and assay procedures for beta-hydroxy-beta-methylglutaryl coenzyme A (HMG Co-A) reductase, fatty acid synthetase (FAS), plasma cholesterol and triglycerides and the statistical treatment of the data have been described [Qureshi AA et al. (1980): Regulation of lipid metabolism in chicken livers by dietary cereals, J Nutr 110:388-393].
Cholesterol inhibitor I was re-chromatographed by HPLC and the UV absorption spectrum obtained. Maximum absorption occurred at 292 nm. This purified fraction was used for high resolution mass spectrometric analysis. Several scans were made using ionization temperatures from 90-180 degrees Centigrade to increase the possibility of detecting impurities. […] The results shown on Table 3 confirm those previously recorded for petroleum ether solubles of HPBF and cholestrol inhibitor I. In a final experiment, the effects of cholestrol inhibitor I and lemon grass oil on hepatocyte HMG Co-A reductase and FAS activities were tested. […]
expressed as mean ± SD; N = 8 chickens per group; HMGCoA reductase = […]

Fatty Acid Synthetase = experiment: Hepatic fatty acid synthetase activity in 3-week-old broiler male chickens fed supplemented corn diet; type: in vivo, chicken; conditions: liver; for Fatty Acid Synthetase: mean ± SD, N = 9
Description: as §1
For large scale preparation of these compounds, 10 grams of the petroleum ether soluble fraction of HPBF were dissolved in 10 ml petroleum ether and applied to a 90×3.5 cm silicic acid column (Bio-Silica, 100-200 mesh). The column was washed with 2,500 ml petroleum ether followed by stepwise elution with increasing amounts of ether in petroleum ether. Fraction 8 of the column corresponded to HPLC fraction 5. A concentration-dependent suppression of HMG Co-A reductase activity and enhancement of FAS activity was noted within this range. Serum total and LDL cholesterol levels also fell in a dose-dependent response. […] In a companion experiment, using the same control birds, the effect of cholesterol inhibitor I at 5 ppm is compared to the effect of the petroleum ether solubles of HPBF at 20% equivalent on weight gain, HMG Co-A reductase and FAS activities, serum cholesterol and serum triglyceride levels (Table 2). […] Serum triglyceride levels reflected the influence of the diet on FAS activity. […] Cholesterol inhibitor I was a more powerful suppressor of LDL cholesterol (Table 2).
^1 Feeding period was 3 weeks; Time of killing was 0800; Data
expressed as mean ± SD; N = 9 chickens per group; HMGCoA reductase =
^3 nmoles of NADPH oxidized per minute per mg of cytosolic protein.

FAS = target: T2, FAS (Gallus gallus, UniProt P12276); experiment: HPLC fractions checked in vitro for effect on FAS in isolated hepatocytes; type: cell-based; conditions: HPLC fractions of petroleum ether solubles
T2 construct: activity in isolated hepatocytes; endogenous in cells; host or cells: isolated hepatocytes
T2 sequence (P12276 2-2512 limits assumed): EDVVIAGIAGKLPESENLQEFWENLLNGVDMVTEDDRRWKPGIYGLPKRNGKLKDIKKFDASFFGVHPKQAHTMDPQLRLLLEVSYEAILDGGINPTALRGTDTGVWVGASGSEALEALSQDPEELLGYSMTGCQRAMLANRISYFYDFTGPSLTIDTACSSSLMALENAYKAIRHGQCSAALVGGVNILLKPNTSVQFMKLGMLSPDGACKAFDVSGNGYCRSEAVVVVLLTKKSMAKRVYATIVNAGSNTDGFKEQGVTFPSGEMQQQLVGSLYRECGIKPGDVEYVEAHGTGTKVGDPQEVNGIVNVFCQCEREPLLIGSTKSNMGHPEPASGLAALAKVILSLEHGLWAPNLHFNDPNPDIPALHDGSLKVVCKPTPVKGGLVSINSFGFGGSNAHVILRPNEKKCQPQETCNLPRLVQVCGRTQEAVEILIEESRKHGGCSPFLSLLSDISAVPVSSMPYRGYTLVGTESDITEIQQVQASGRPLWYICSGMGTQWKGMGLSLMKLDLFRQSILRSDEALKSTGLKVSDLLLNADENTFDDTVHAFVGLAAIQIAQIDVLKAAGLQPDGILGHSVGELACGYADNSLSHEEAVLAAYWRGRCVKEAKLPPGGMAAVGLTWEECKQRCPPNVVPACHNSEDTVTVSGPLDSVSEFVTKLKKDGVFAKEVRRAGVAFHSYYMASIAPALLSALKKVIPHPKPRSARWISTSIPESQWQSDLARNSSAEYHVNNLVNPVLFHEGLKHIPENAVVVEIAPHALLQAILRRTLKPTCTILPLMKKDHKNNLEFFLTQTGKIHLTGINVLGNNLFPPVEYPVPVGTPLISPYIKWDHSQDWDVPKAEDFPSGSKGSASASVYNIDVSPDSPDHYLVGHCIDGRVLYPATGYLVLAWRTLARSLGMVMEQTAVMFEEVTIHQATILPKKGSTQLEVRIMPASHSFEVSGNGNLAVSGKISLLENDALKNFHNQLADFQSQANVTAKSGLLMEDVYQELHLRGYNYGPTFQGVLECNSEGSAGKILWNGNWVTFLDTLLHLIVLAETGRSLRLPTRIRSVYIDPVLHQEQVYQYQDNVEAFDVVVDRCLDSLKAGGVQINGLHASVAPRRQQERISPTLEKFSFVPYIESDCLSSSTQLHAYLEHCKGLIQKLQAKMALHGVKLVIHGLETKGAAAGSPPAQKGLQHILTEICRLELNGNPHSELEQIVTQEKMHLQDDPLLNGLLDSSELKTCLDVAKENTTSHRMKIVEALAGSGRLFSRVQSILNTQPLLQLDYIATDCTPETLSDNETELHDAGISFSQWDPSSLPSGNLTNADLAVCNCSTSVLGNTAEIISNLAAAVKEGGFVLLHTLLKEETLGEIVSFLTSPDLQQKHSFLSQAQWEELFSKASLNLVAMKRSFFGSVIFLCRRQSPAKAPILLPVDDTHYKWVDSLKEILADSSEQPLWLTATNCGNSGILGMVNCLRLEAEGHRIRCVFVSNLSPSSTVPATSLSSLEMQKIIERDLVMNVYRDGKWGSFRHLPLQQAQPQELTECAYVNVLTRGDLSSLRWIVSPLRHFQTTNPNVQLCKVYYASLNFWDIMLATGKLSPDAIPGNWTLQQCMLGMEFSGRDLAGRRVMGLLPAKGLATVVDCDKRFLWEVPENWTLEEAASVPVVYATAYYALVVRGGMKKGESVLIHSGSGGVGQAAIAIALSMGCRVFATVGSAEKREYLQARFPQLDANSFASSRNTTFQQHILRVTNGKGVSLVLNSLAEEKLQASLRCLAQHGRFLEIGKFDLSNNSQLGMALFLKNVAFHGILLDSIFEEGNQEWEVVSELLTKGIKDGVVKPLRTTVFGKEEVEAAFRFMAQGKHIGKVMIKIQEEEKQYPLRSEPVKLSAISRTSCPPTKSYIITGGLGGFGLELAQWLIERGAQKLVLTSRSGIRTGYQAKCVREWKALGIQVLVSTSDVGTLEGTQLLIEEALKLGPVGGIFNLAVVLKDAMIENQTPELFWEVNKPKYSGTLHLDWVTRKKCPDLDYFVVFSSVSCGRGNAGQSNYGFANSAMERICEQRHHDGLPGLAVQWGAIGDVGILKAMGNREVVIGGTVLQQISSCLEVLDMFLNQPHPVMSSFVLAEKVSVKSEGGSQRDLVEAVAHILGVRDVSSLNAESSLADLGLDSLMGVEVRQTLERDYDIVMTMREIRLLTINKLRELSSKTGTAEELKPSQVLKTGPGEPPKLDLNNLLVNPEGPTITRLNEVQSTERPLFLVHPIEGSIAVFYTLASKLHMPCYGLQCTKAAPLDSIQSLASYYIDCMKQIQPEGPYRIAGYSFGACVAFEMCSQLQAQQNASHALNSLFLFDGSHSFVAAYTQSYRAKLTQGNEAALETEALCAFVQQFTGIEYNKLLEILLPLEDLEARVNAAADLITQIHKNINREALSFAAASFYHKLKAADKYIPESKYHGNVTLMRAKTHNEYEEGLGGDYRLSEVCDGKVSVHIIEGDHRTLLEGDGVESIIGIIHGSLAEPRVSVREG

[1] = Animal tests of pure d-α-tocotrienol: blood cholesterol and side effects; type: in vivo; conditions: test animals
Description: We have isolated pure d-α-tocotrienol from barley. […] In addition to being extractable from natural sources, including barley and lemon grass oil, d-α-tocotrienol can be synthesized using available technology similar to that which has been used in the synthesis of Vitamin E and more recently as described by S. Urano et al. (J. Chem. Pharm. Bull. 31, 4341 (1983)).

[2] = 2.5 ppm in corn diet, fed 3 weeks
[3] = 5.0 ppm in corn diet, fed 3 weeks
[4] = 10.0 ppm in corn diet, fed 3 weeks
[5] = 15.0 ppm in corn diet, fed 3 weeks
[6] = 20.0 ppm in corn diet, fed 3 weeks

- HMG-CoA Reductase, percentage of control (HMG-CoA reductase): 63 Percentage of respective contr
- HMG-CoA Reductase (HMG-CoA reductase; mean ± SD, N = 8): 305 ± 18 pmoles of mevalonic acid synth
- Effect on activities of FAS (FAS): significant increase
SMILES: CC(C)=CCC/C(C)=C/CC/C(C)=C/CC[C@]1(C)CCc2c(C)c(O)c(C)c(C)c2O1 [Cholesterol inhibitor I, 2,5,7,8-tetramethyl-2 (4,8, 12-trimethyltrideca-3,7, 11-trienyl)chroman-6-ol]
- Fatty Acid Synthetase, percentage of control (Fatty Acid Synthetase; [2]): 118 Percentage of respective contr
- Fatty Acid Synthetase (Fatty Acid Synthetase; [2]): 190 ± 12 nmoles of NADPH oxidized per m
- Fatty Acid Synthetase, percentage of control (Fatty Acid Synthetase; [3]): 120 Percentage of respective contr
- Fatty Acid Synthetase (Fatty Acid Synthetase; [3]): 202 ± 10 nmoles of NADPH oxidized per m
- Fatty Acid Synthetase, percentage of control (Fatty Acid Synthetase; [4]): 125 Percentage of respective contr
- Fatty Acid Synthetase (Fatty Acid Synthetase; [4]): 210 ± 15 nmoles of NADPH oxidized per m
- Fatty Acid Synthetase, percentage of control (Fatty Acid Synthetase; [5]): 130 Percentage of respective contr
- Fatty Acid Synthetase (Fatty Acid Synthetase; [5]): 218 ± 17 nmoles of NADPH oxidized per m
- Fatty Acid Synthetase, percentage of control (Fatty Acid Synthetase; [6]): 140 Percentage of respective contr
- Fatty Acid Synthetase (Fatty Acid Synthetase; [6]): 235 ± 18 nmoles of NADPH oxidized per m
- Fatty Acid Synthetase (Fatty Acid Synthetase; corn diet + 5 ppm (Table 2)): 215 ± 18 nmoles of NADPH oxidized per m
- Effect on high density lipoprotein cholesterol levels [1]: no significant effect
- Side effects [1]: no undesirable side effects
- Effect on total and low density lipoprotein cholesterol ([1]; even in low concentrations): lower concentrations of total and low density lipoprotein cholesterol

From US4603142A, “Cholesterol lowering method of use” (Wisconsin Alumni Research Foundation, priority 1984, dated 1986)
